Experimental data published in ChEMBL document CHEMBL1201862, “PubChem BioAssay data set” (2004).
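Each compound was tested at five concentrations against cells in 96-well plates for 48 hours. GI50 is the concentration that inhibits growth by half.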 Calls of active or inactive are those of the source. Rule as the data show it: active = GI50 up to about 1.1 µM and inactive = higher.

Assays:
Test in all cases: inhibition of tumour cell growth, NCI panel, 48 h
[1] = system: TK-10
[2] = system: SR
[3] = system: 786-0
[4] = system: HCT-116
[5] = system: OVCAR-5
[6] = system: NCI-H23
[7] = system: K562
[8] = system: SK-MEL-2
[9] = system: A498
[10] = system: SK-MEL-5
[11] = system: IGROV-1
[12] = system: SF-295
[13] = system: BT-549
[14] = system: NCI-H226
[15] = system: HT-29
[16] = system: NCI/ADR-RES
[17] = system: KM12
[18] = system: SNB-19
[19] = system: SK-OV-3
[20] = system: SN12C

Compound | GI50 [1] | GI50 [2] | GI50 [3] | GI50 [4] | GI50 [5] | GI50 [6] | GI50 [7] | GI50 [8] | GI50 [9] | GI50 [10] | GI50 [11] | GI50 [12] | GI50 [13] | GI50 [14] | GI50 [15] | GI50 [16] | GI50 [17] | GI50 [18] | GI50 [19] | GI50 [20]
C=CC(c1ccccc1)C1(O)c2cccc(O)c2C(=O)c2c(O)cccc21 (stereo unspecified) | 19.2 µM (inactive) | 5.89 µM (inactive) | 17.4 µM (inactive) | 11.5 µM (inactive) | 22.1 µM (inactive) | 13.4 µM (inactive) | 6.64 µM (inactive) | 12.4 µM (inactive) | 19.6 µM (inactive) | 17.3 µM (inactive) | 14.9 µM (inactive) | 14.9 µM (inactive) | 16.7 µM (inactive) | 19.4 µM (inactive) | 11.5 µM (inactive) | 11.5 µM (inactive) | 12.8 µM (inactive) |  |  | 
N#CCCN(CCCN(C(=O)Nc1ccc(NC(=O)N(CCCN(CCC#N)C(N)=O)c2ccccc2)cc1)c1ccccc1)C(N)=O | > 100 µM (inactive) | > 100 µM (inactive) | > 100 µM (inactive) | > 100 µM (inactive) | > 100 µM (inactive) | > 100 µM (inactive) | > 100 µM (inactive) | > 100 µM (inactive) | > 100 µM (inactive) | > 100 µM (inactive) |  | > 100 µM (inactive) | > 100 µM (inactive) | > 100 µM (inactive) | > 100 µM (inactive) | > 100 µM (inactive) | > 100 µM (inactive) | > 100 µM (inactive) | > 100 µM (inactive) | 
CCSCC(N)C(=O)O (stereo unspecified) | > 100 µM (inactive) | > 100 µM (inactive) | > 100 µM (inactive) | > 100 µM (inactive) | > 100 µM (inactive) | > 100 µM (inactive) |  | > 100 µM (inactive) | > 100 µM (inactive) | > 100 µM (inactive) | > 100 µM (inactive) | > 100 µM (inactive) | > 100 µM (inactive) | > 100 µM (inactive) | > 100 µM (inactive) | > 100 µM (inactive) | > 100 µM (inactive) | > 100 µM (inactive) | > 100 µM (inactive) | > 100 µM (inactive)
COc1ccc(C)cc1NC(=S)N/N=C/c1ccc(SC)cc1 |  | 38.5 µM (inactive) | 83.6 µM (inactive) | 69.3 µM (inactive) | 25.1 µM (inactive) | 50.2 µM (inactive) | 35.4 µM (inactive) | 55.6 µM (inactive) | > 100 µM (inactive) | 21.6 µM (inactive) | 42.8 µM (inactive) | 69.5 µM (inactive) | 49.3 µM (inactive) |  | 34.1 µM (inactive) | 60.1 µM (inactive) | 67.5 µM (inactive) | > 100 µM (inactive) | 19.5 µM (inactive) | > 100 µM (inactive)
Cc1nc(-c2ccc(/N=C/c3ccc(N(CCOS(C)(=O)=O)CCOS(C)(=O)=O)cc3C)cc2)cs1 | 55.5 µM (inactive) | 9.51 µM (inactive) | 13.8 µM (inactive) | 34.8 µM (inactive) | 30.8 µM (inactive) | 35.4 µM (inactive) | 26.5 µM (inactive) | > 100 µM (inactive) | 2.31 µM (inactive) | 11.4 µM (inactive) | 28.8 µM (inactive) | 37.7 µM (inactive) | 28.2 µM (inactive) | 5.71 µM (inactive) | 30.3 µM (inactive) | > 100 µM (inactive) | 32.1 µM (inactive) | > 100 µM (inactive) | 26.5 µM (inactive) | 27.8 µM (inactive)
CCCCCCCCCCCCCCCC(=O)OC(COC(C)=O)CO[PH](=O)O (stereo unspecified) | 29 µM (inactive) | 24.9 µM (inactive) | 20.3 µM (inactive) |  | 16.1 µM (inactive) |  | > 100 µM (inactive) | 19.5 µM (inactive) | > 100 µM (inactive) | > 100 µM (inactive) | 22.3 µM (inactive) | 17.6 µM (inactive) | > 100 µM (inactive) |  |  | 23.1 µM (inactive) | 18.3 µM (inactive) | 36.5 µM (inactive) |  | 48.5 µM (inactive)
O=C(CNc1ccc([N+](=O)[O-])cc1)Nn1c(-c2ccccc2)nc2ccccc2c1=O | 6.15 µM (inactive) | 3.1 µM (inactive) | 2.4 µM (inactive) | 3.03 µM (inactive) | 5.73 µM (inactive) | 2.43 µM (inactive) | 1.91 µM (inactive) | 2.15 µM (inactive) | 7.01 µM (inactive) | 1.04 µM (active) | 3.64 µM (inactive) | 14.5 µM (inactive) | 1.82 µM (inactive) | 4.69 µM (inactive) | 3.06 µM (inactive) | 2.33 µM (inactive) | 4.56 µM (inactive) | 8.75 µM (inactive) | 3.97 µM (inactive) | 2.2 µM (inactive)
Cc1cccc2c1C(=O)[C@@](C)([C@]1(C)Nc3cccc(C)c3C1=O)N2 |  | > 100 µM (inactive) | > 100 µM (inactive) | > 100 µM (inactive) | > 100 µM (inactive) | > 100 µM (inactive) | > 100 µM (inactive) | > 100 µM (inactive) | > 100 µM (inactive) | 96.6 µM (inactive) | > 100 µM (inactive) | > 100 µM (inactive) | > 100 µM (inactive) | > 100 µM (inactive) | > 100 µM (inactive) | > 100 µM (inactive) | > 100 µM (inactive) | > 100 µM (inactive) | > 100 µM (inactive) | > 100 µM (inactive)
O=C1/C(=C/c2ccc(Br)s2)NC(=S)N1CN1CCOCC1 | 50.6 µM (inactive) | 21.5 µM (inactive) | 43 µM (inactive) | 31.8 µM (inactive) | 61.1 µM (inactive) | 36.3 µM (inactive) | 25.8 µM (inactive) | 71.9 µM (inactive) | 35.9 µM (inactive) | 50 µM (inactive) | 57.4 µM (inactive) | 95.5 µM (inactive) | 34 µM (inactive) | 34.5 µM (inactive) | 35.2 µM (inactive) | 64.9 µM (inactive) | 84.3 µM (inactive) | > 100 µM (inactive) |  | 45.4 µM (inactive)
CCCCn1c(CSc2ccc(Cl)cc2)c(C(=O)OCC)c2cc(OC)c(Br)cc21 | > 100 µM (inactive) | 88.7 µM (inactive) | > 100 µM (inactive) | > 100 µM (inactive) | > 100 µM (inactive) | > 100 µM (inactive) | > 100 µM (inactive) | > 100 µM (inactive) | > 100 µM (inactive) | > 100 µM (inactive) | > 100 µM (inactive) | > 100 µM (inactive) | > 100 µM (inactive) | > 100 µM (inactive) |  | > 100 µM (inactive) | > 100 µM (inactive) | > 100 µM (inactive) | > 100 µM (inactive) | > 100 µM (inactive)
CSc1nc(SC)c2c(C)cn(Cc3ccccc3)c2n1 | > 100 µM (inactive) | 32.4 µM (inactive) | > 100 µM (inactive) | 69.2 µM (inactive) | > 100 µM (inactive) | > 100 µM (inactive) |  | > 100 µM (inactive) | > 100 µM (inactive) | > 100 µM (inactive) | > 100 µM (inactive) | > 100 µM (inactive) | > 100 µM (inactive) | > 100 µM (inactive) | 41.7 µM (inactive) | > 100 µM (inactive) | > 100 µM (inactive) | > 100 µM (inactive) | > 100 µM (inactive) | > 100 µM (inactive)
Cc1cc2nc(N3C(=O)/C(=C/c4ccccc4S)N=C3c3ccccc3)sc2cc1C | 58.1 µM (inactive) | 33.2 µM (inactive) | 18.7 µM (inactive) | 18.3 µM (inactive) | 26.5 µM (inactive) |  | 29.3 µM (inactive) | 18.2 µM (inactive) | 21.7 µM (inactive) | 29 µM (inactive) | 18.8 µM (inactive) | 27.4 µM (inactive) | 28.6 µM (inactive) |  | 21 µM (inactive) | 26.7 µM (inactive) | 34 µM (inactive) | 55.8 µM (inactive) | 99.5 µM (inactive) | 25.8 µM (inactive)
CN(C)CCNC(=O)C(C)(C)Oc1ccc(C(=O)c2ccc(Cl)cc2)cc1Cl | 11.4 µM (inactive) | 6.84 µM (inactive) | 3.91 µM (inactive) | 7.4 µM (inactive) | 15.1 µM (inactive) | 9.86 µM (inactive) |  | 18 µM (inactive) | 16.1 µM (inactive) | 2.25 µM (inactive) | 11.9 µM (inactive) | 10.6 µM (inactive) | 11.5 µM (inactive) | 14.7 µM (inactive) | 2.56 µM (inactive) | 12.5 µM (inactive) | 8.93 µM (inactive) | 13 µM (inactive) | 15.9 µM (inactive) | 13.4 µM (inactive)
CCOC(=O)/C(=C\NC#N)c1nc2ccccc2[nH]1 | 85.5 µM (inactive) | 52.7 µM (inactive) | > 100 µM (inactive) | > 100 µM (inactive) | > 100 µM (inactive) | > 100 µM (inactive) |  |  | > 100 µM (inactive) | 65.2 µM (inactive) | 58.9 µM (inactive) | > 100 µM (inactive) | > 100 µM (inactive) |  | > 100 µM (inactive) | > 100 µM (inactive) | > 100 µM (inactive) | > 100 µM (inactive) | > 100 µM (inactive) | > 100 µM (inactive)
OC(c1ccc(Cl)cc1)(c1ccc(Cl)cc1)c1cncnc1 | 21.8 µM (inactive) | 31.7 µM (inactive) |  | 14.3 µM (inactive) | 18.9 µM (inactive) | 26.3 µM (inactive) | 4.5 µM (inactive) | 16.6 µM (inactive) | 21.2 µM (inactive) | 13.6 µM (inactive) | > 10 µM (inactive) | 19.1 µM (inactive) | 19.2 µM (inactive) | 20.7 µM (inactive) | 16.6 µM (inactive) | 26.4 µM (inactive) | 17.6 µM (inactive) | 22.5 µM (inactive) | > 10 µM (inactive) | 26.7 µM (inactive)
